Results published in patent publication US20120022045A1, “BRIDGED COMPOUNDS AS HIV INTEGRASE INHIBITORS” (priority 2009, published 2012).
Read-outs that look alike come from different tables or passages of the source.

Legend:
HIV-1 integrase = molecular target: T1, HIV-1 integrase (Human immunodeficiency virus type 1 group M subtype B, UniProt P04585); assay: HIV integrase assay: strand transfer catalyzed by recombinant integrase; type: biochemical; conditions: strand transfer activity
T1 construct: strand transfer activity of HIV-1 integrase
Description: Assays for the strand transfer activity of HIV-1 integrase were conducted in accordance with WO 02/30930 for recombinant integrase.
Further description on conducting the assay using preassembled complexes is found in Wolfe, A. L. et al., J. Virol. 1996, 70: 1424-1432, Hazuda et al., J. Virol. 1997, 71: 7005-7011; Hazuda et al., Drug Design and Discovery 1997, 15: 17-24; and Hazuda et al., Science 2000, 287: 646-650.

HIV-1 = assay: Inhibition of acute HIV-1 infection of T-lymphoid cells (spread assay); type: cell-based; conditions: 10% FBS, read-out: IC95 (nM) in the presence of 10% FBS
Description: Assays for the inhibition of acute HIV-1 infection of T-lymphoid cells were conducted in accordance with Vacca, J. P. et al., Proc. Natl. Acad. Sci. USA 1994, 91: 4096.

HIV-1 wild type IIIB = assay: Single cycle infectivity assay in HeLa P4-2 cells, wild type virus; type: cell-based
Description: (§1) An assay for measuring the inhibition of acute HIV-1 infection with HeLa P4-2 cells in a single cycle infectivity assay was conducted using methods described in Joyce et al., J. Biol. Chem. 2002, 277: 45811, Hazuda et al., Science 2000, 287: 646, and Kimpton et al, J. Virol. 1992, 66: 2232. Proviral plasmids encoding viruses containing specific mutations in the integrase gene (N155H, Q148R, Y143R, E92Q, or G140S/Q148H) were generated by site-directed mutagenesis, and viruses were produced by transfecting 293T cells with the appropriate proviral plasmids.

[1] = system: HIV-1 integrase mutant virus N155H; assay: Single cycle infectivity assay in HeLa P4-2 cells, integrase mutant N155H virus; type: cell-based; conditions: fold shift in IC50 versus wild type IIIB
Description: as §1

[2] = system: HIV-1 integrase mutant virus Q148R; assay: Single cycle infectivity assay in HeLa P4-2 cells, integrase mutant Q148R virus; type: cell-based; conditions: fold shift in IC50 versus wild type IIIB
Description: as §1

[3] = system: HIV-1 integrase mutant virus Y143R; assay: Single cycle infectivity assay in HeLa P4-2 cells, integrase mutant Y143R virus; type: cell-based; conditions: fold shift in IC50 versus wild type IIIB
Description: as §1

[4] = system: HIV-1 integrase mutant virus G140S/Q148H; assay: Single cycle infectivity assay in HeLa P4-2 cells, integrase mutant G140S/Q148H virus; type: cell-based; conditions: fold shift in IC50 versus wild type IIIB
Description: as §1

[5] = Human immunodeficiency virus 1, T-lymphoid
[6] = Human immunodeficiency virus 1, IIIB, HeLaP4-2, wild type IIIB

Row | Compound | IC50 (HIV-1 integrase) | IC95 (HIV-1) | IC50 (HIV-1 wild type IIIB; wild type IIIB) | N155H (shift) [1] | Q148R (shift) [2] | Y143R (shift) [3] | G140S/Q148H (shift) [4] | IC95 (HIV-1; [5]) | IC50 (HIV-1 wild type IIIB; [6])
1 | Cc1cc(CNC(=O)c2nc3n(c(=O)c2O)CC2CCC3(N(C)C(=O)C(=O)N(C)C)CO2)ccc1F (single isomer, unassigned) [Example 11A] | 0.037 µM | 17 nM | 0.021 µM | 10 fold | 8 fold | 2 fold | >79 fold | – | –
2 | Cc1cc(CNC(=O)c2nc3n(c(=O)c2O)CC2CCC3(N(C)C(=O)C(=O)N(C)C)CC2)ccc1F [Example 2, N-(4-{[(4-fluoro-3-methylbenzyl)amino]carbonyl}-5-hydroxy-6-oxo-3,7-diazatricyclo[7.2.2.0^2,7]trideca-2,4-dien-1-yl)-N,N′,N″-trimethylethanediamide] | 0.015 µM | – | – | 2 fold | 2 fold | 1 fold | 5 fold | 7.2 nM | 0.004 µM
3 | CN(C)C(=O)C(=O)NC12CCC(CC1)Cn1c2nc(C(=O)NCc2ccc(F)cc2)c(O)c1=O [Example 5, N′-{2-[(4-fluorobenzyl)carbamoyl]-3-hydroxy-4-oxo-6,7,8,9-tetrahydro-7,10-ethanopyrimido[1,2-a]azepin-10(4H)-yl}-N,N-dimethylethanediamide] | 0.033 µM | – | – | 2 fold | 1 fold | 1 fold | 9 fold | < 3.9 nM | 0.0067 µM
4 | CC1C2CCC(N(C)C(=O)C(=O)N(C)C)(CC2)c2nc(C(=O)NCc3ccc(F)cc3)c(O)c(=O)n21 (single isomer, unassigned) [Example 13A, N-(4-{[(4-fluorobenzyl)amino]carbonyl}-5-hydroxy-8-methyl-6-oxo-3,7-diazatricyclo[7.2.2.0^2,7]trideca-2,4-dien-1-yl)-N′,N′,N″-trimethylethanediamide] | 0.013 µM | 8.6 nM | – | 2 fold | 1 fold | 2 fold | 2 fold | – | 0.007 µM
5 | CCN(C(=O)C(=O)N(C)C)C12CCC(Cn3c1nc(C(=O)NCc1ccc(F)cc1)c(O)c3=O)OC2 (single isomer, unassigned) [Example 12A, N-Ethyl-N-(4-{[(4-fluorobenzyl)amino]carbonyl}-5-hydroxy-6-oxo-10-oxa-3,7-diazatricyclo[7.2.2.0^2,7]trideca-2,4-dien-1-yl)-N′,N′-dimethylethanediamide] | 0.011 µM | – | 0.023 µM | 6 fold | 7 fold | 2 fold | 112 fold | 11 nM | –
6 | CN(C)C(=O)C(=O)N(C)C12CCC(CC1)Cn1c2nc(C(=O)NCc2ccc(F)cc2)c(O)c1=O [Example 1, N-(4-{[(4-fluorobenzyl)amino]carbonyl}-5-hydroxy-6-oxo-3,7-diazatricyclo[7.2.2.0^2,7]trideca-2,4-dien-1-yl)-N′,N′,N″-trimethylethanediamide] | 0.013 µM | – | – | 3 fold | 2 fold | 2 fold | 15 fold | 6.2 nM | 0.0072 µM
7 | O=C(NC12CCC(CC1)Cn1c2nc(C(=O)NCc2ccc(F)cc2)c(O)c1=O)C(=O)N1CCOCC1 [Example 6, N-(4-Fluorobenzyl)-3-hydroxy-10-{[morpholin-4-yl(oxo)acetyl]amino}-4-oxo-4,6,7,8,9,10-hexahydro-7,10-ethanopyrimido[1,2-a]azepine-2-carboxamide] | 0.037 µM | – | – | 2 fold | 2 fold | 1 fold | 5 fold | 5.3 nM | 0.009 µM
8 | CN1CCN(C(=O)C(=O)N(C)C23CCC(CC2)Cn2c3nc(C(=O)NCc3ccc(F)cc3)c(O)c2=O)CC1 [Example 4] | 0.014 µM | – | – | 4 fold | 3 fold | 1 fold | 4 fold | 39 nM | 0.033 µM
9 | N-5-{[(4-fluorolbenzyl)amino]carbonyl}-4-hydroxy-3-oxo-2,6-diazatricyclo[6.3.2.0^2,7]trideca-4,6-dien-8-yl)-N,N′,N′-trimethylethanediamide [Example 24B] | 0.024 µM | 7.4 nM | 0.007 µM | 3 fold | 1 fold | 2 fold | 6 fold | – | –
10 | CN(C)C(=O)C(=O)N(C)C12CCC(Cn3c1nc(C(=O)NCc1ccc(F)cc1)c(O)c3=O)OC2 (single isomer, unassigned) [Example 10B, N-(4-{[(4-Fluorobenzyl)amino]carbonyl}-5-hydroxy-6-oxo-10-oxa-3,7-diazatricyclo[7.2.2.0^2,7]trideca-2,4-dien-1-yl)-N′,N′,N′-trimethylethanediamide] | 0.014 µM | 15 nM | 0.03 µM | 18 fold | 22 fold | 6 fold | 12 fold | – | –
11 | CCCN(C(=O)C(=O)N(C)C)C12CCC(Cn3c1nc(C(=O)NCc1ccc(F)cc1)c(O)c3=O)OC2 (stereo not shown) [Example 19, N-(4-{[(4-fluorolbenzyl)amino]carbonyl}-5-hydroxy-6-oxo-10-oxa-3,7-diazatricyclo[7.2.2.0^2,7]trideca-2,4-dien-1-yl)-N′,N′-dimethyl-N-propylethanediamide] | – | – | – | 45 fold | 59 fold | 7 fold | >209 fold | 15.9 nM | 0.008 µM
12 | CCC1C2CCC(NC(=O)C(=O)N(C)C)(CO2)c2nc(C(=O)NCc3ccc(F)cc3)c(O)c(=O)n21 (single isomer, unassigned) [Example 26B, N′-(8-ethyl-4-{[(4-fluorobenzyl)amino]carbonyl}-5-hydroxy-6-oxo-10-oxa-3,7-diazatricyclo[7.2.2.0^2,7]trideca-2,4-dien-1-yl)-N-dimethylethanediamide] | – | 22.6 nM | 0.036 µM | 1 fold | 1 fold | 1 fold | 1 fold | – | –
13 | COC12CCC(N(C)C(=O)C(=O)N(C)C)(CC1)c1nc(C(=O)NCc3ccc(F)c(C)c3)c(O)c(=O)n1C2 [Example 14, N-(4-{[(4-Fluoro-3-methylbenzyl)amino]carbonyl}-5-hydroxy-9-methoxy-6-oxo-3,7-diazatricyclo[7.2.2.0^2,7]trideca-2,4-dien-1-yl)-N,N′,N′-trimethylethanediamide] | – | – | – | 2 fold | 1 fold | 2 fold | 4 fold | 13.1 nM | 0.012 µM
14 | CN(C)C(=O)C(=O)N(C)C12CCC(CC1)n1c2nc(C(=O)NCc2ccc(F)cc2)c(O)c1=O [Example 30] | – | – | – | 7 fold | 9 fold | 3 fold | 32 fold | 22.4 nM | 0.017 µM
15 | CN(C)C(=O)C(=O)N(C)C12CCC(CC1)Cn1c2nc(C(=O)NCc2ccc(F)cc2)c(O)c1=O (single isomer, unassigned) [Example 24A] | – | – | – | 4 fold | 5 fold | 1 fold | >111 fold | 11.7 nM | 0.015 µM
16 | CCC1C2CCC(NC(=O)C(=O)N(C)C)(CO2)c2nc(C(=O)NCc3ccc(F)cc3)c(O)c(=O)n21 (single isomer, unassigned) [Example 26A, N′-(8-ethyl-4-{[(4-fluorobenzyl)amino]carbonyl}-5-hydroxy-6-oxo-10-oxa-3,7-diazatricyclo[7.2.2.0^2,7]trideca-2,4-dien-1-yl)-N-dimethylethanediamide] | – | 16.0 nM | 0.024 µM | 9 fold | 9 fold | 2 fold | >70 fold | – | –
17 | CCC1C2CCC(N(C)C(=O)C(=O)N(C)C)(CO2)c2nc(C(=O)NCc3ccc(F)cc3)c(O)c(=O)n21 (single isomer, unassigned) [Example 25A, N-(8-ethyl-4-{[(4-fluorobenzyl)amino]carbonyl}-5-hydroxy-6-oxo-10-oxa-3,7-diazatricyclo[7.2.2.0^2,7]trideca-2,4-dien-1-yl)-N,N′,N′-trimethylethanediamide] | – | – | 0.014 µM | 1 fold | 1 fold | 7 fold | 1 fold | 6.3 nM | –
